Five compounds from patent US11414419B2, “Substituted purines for the treatment of neurodegenerative and mitochondrial diseases” (Mitokinin, Inc., priority 2017, dated 2022) can be followed below.

One may read the AUC(0-inf) as total exposure, with the tail of the curve extrapolated. As a reminder, the AUC(0-t) is exposure summed from dosing to a finite time, without extrapolation to infinity. The low end stands for low exposure, the high end for high exposure. As usually defined, the Cmax is the peak of the concentration-time curve. A word on the half-life: it is how long it takes for the measured level to halve. A low value points to rapid decline. In general, MRT inf refers to the average time that molecules of a dose stay in the body. One may read the Tmax as the time from dosing to the highest level.

One series can be described thus: in vivo. The conditions noted are these: rat; for AUC(0-inf) / AUC(0-t) / Cmax / half-life / MRT inf / Tmax: male, SD; for AUC(0-inf): AUCINF_pred; for AUC(0-t): AUClast; for half-life: HL_Lambda_z (T1/2); for MRT inf: MRTINF_pred. The protocol:
Compounds tested were as follows: kinetin (MW=215.21); MTK-115 (MW=243.26); MTK-115D (MW=219.29); MTK-125A (MW=217.27); and MTK-63A (MW=203.24). Formulation concentrations were 0.2 mg/mL for IV delivery; 0.5 mg/mL for PO delivery. Dosing was as follows: IV: 1 mg/kg, 5 mL/kg; PO: 5 mg/kg, 10 mL/kg. Results are as follows:
Compounds were prepared in a formulation of 4% DMSO, 15% Solutol HS 15, 81% PBS and then administered to male SD rats via oral gavage at 5 mg/kg (n=3 per compound). Plasma draws were taken at 15m, 30m, 1 hr, 2 hr, 4 hr, 8 hr, and 24 hrs, then analyzed by mass spectrometry for presence of the compound. Data were then plotted, and AUC values calculated.

The target in another series is T1, PINK1 (Homo sapiens, UniProt Q9BXM7).
T1 construct: expressed in transfected cells; host or cells: HeLa cells, retroviral transduction; they also stably express FRB-Fis1, mt-mKeima and Parkin
The series can be described thus: PINK1-specific mitophagy assay (FACS for lysosomal-positive mt-mKeima). It counts as cell-based. An excerpt:
mt-mKeima was cloned into a pCHAC-MCS-1-IRES-MCS2 vector. PINK1D110-YFP-23FKBP wild-type was cloned into pRetroQ-AcGFP-C1 at NheI/XhoI sites by Gibson assembly kit. The HA-tag was removed, and stop codon introduced. Wild-type HeLa cells stably expressing FRB-Fis1, mt-mKeima, Parkin, and wild-type PINK1D110-YFP-23FKBP were generated using retroviral transduction as described previously. Flag/HA-receptors were stably expressed in these cells by lentivirus transduction as described previously then treated with varying concentrations (see Table 2) of the experimental compounds for 5 days, followed by 1 uM rapalog for 24 h. Cells were then resuspended in sorting buffer (145 mM NaCl, 5 mM KCl, 1.8 mM CaCl2, 0.8 mM MgCl2, 10 mM HEPES, 10 mM glucose, 0.1% BSA) containing […] DAPI. Analysis was performed using Summit software (v6.2.6.16198) on a Beckman Coulter MoFlo Astrios cell sorter. Measurements of lysosomal mt-mKeima were made using dual-excitation ratiometric pH measurements at 488 (pH7) and 561 (pH4) nm lasers with 620/29 nm and 614/20 nm emission filters, respectively. For each sample, 50,000 events were collected and subsequently gated for YFP/mt-mKeima double-positive cells that were DAPI-negative. Data were analysed using FlowJo (v10, Tree Star).

Series [1] relates to Parkin-expressing HeLa cells with intact wt PINK1. In words: Cytotoxicity experiments (DAPI stain, FACS). It counts as cell-based. The conditions noted are these: 50 uM, 24 hrs, versus MTK-64, FIG. 6. How it is done: Compounds were incubated for 24 hrs at 50 uM in Parkin-expressing HeLa cells with intact wt PINK1. After 24 hrs, cells were DAPI stained according to standard protocols and assayed via FACS.

[2] abbreviates: rapalog + experimental compound 12.5 uM.
[3] abbreviates: rapalog + experimental compound 25 uM.
Setting [4] is: rapalog + experimental compound 50 uM.

Molecules are shown by their SMILES.

T1 sequence (Q9BXM7 111-581 limits assumed): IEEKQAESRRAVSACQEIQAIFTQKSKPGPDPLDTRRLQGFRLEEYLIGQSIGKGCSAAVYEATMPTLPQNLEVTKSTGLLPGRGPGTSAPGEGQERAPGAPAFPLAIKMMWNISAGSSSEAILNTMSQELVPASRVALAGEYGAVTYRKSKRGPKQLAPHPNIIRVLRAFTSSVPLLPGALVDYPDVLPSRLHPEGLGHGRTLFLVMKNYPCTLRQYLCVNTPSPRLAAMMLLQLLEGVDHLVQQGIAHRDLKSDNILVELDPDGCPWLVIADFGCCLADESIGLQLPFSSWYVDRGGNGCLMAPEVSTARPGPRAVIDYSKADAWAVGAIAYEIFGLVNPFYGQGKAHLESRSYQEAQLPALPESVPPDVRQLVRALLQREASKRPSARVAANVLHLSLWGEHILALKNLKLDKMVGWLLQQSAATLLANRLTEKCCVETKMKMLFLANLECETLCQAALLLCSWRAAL

In the series “in vivo” (iv, 1 mg/kg), `C/C=C/CNc1nc(C)nc2[nH]cnc12` [MTK-63A] had an AUC(0-inf) of 360 ng·h/mL, an AUC(0-t) of 359 ng·h/mL, a Cmax of 1140 ng/mL and a half-life of 7.8 min. Moreover, the MRT inf in the series “in vivo” (iv, 1 mg/kg) is 10.2 min. Also, in “in vivo” (iv, 1 mg/kg, Tmax), the Tmax came to 4.8 min. Moreover, in the series “in vivo” (po, 5 mg/kg), the Tmax stood at 18 min, the AUC(0-inf) is 306 ng·h/mL, the AUC(0-t) was found to be 294 ng·h/mL and the Cmax was found to be 305 ng/mL. In the series “in vivo” (po, 5 mg/kg), the half-life was 97.8 min and the MRT inf came to 145 min. Besides, the Tmax in the series “in vivo” (po, 5 mg/kg, Tmax) came out at 15 min.
With `C/C=C/CNc1nc(C)nc2[nH]c(C)nc12` [MTK-115A], the “percentage of cells undergoing mitophagy” value at PINK1 (setting [2]) was found to be 7.26%; on PINK1 (setting [3]), 7.76%; at PINK1 (setting [4]) it was 8.41%. Moreover, the Cmax in “in vivo” (po, 5 mg/kg) stood at 769 ng/mL. Moreover, the MRT inf in the series “in vivo” (po, 5 mg/kg) was determined as 175 min. Moreover, the “oral PK, AUC versus comparator” value in the series “in vivo” (5 mg/kg) was “substantial increase in AUC”.
Regarding `CCCCNc1nc(C)nc2[nH]c(C)nc12` [MTK-115D], the “percentage of cells undergoing mitophagy” value on PINK1 (setting [2]) stood at 16.7%. At PINK1 (setting [3]), the “percentage of cells undergoing mitophagy” value was 18.1%. Moreover, the “percentage of cells undergoing mitophagy” value on PINK1 (setting [4]) is on record as 18.6%. Further, at PINK1 (versus MTX-63H (hydrogen instead of methyl at R3), FIG. 5), the “increase in activity (mitophagy)” value is recorded as roughly 40%. In addition, in “in vivo” (iv, 1 mg/kg), the AUC(0-inf) stood at 470 ng·h/mL, the AUC(0-t) was found to be 469 ng·h/mL, the Cmax worked out at 1440 ng/mL and the half-life was 7.2 min. In addition, the MRT inf in “in vivo” (iv, 1 mg/kg) was 10.2 min. In addition, the Tmax in “in vivo” (iv, 1 mg/kg, Tmax) came to 4.8 min. For the same compound, in “in vivo” (po, 5 mg/kg), the half-life was 39.6 min and the MRT inf turned out to be 182 min.
In the case of `Cc1nc(NCc2ccco2)c2nc(C)[nH]c2n1` [MTK-115], the “percentage of cells undergoing mitophagy” value at PINK1 (setting [2]) came out at 13.4%. On PINK1 (setting [3]), the “percentage of cells undergoing mitophagy” value is 16%. On PINK1 (setting [4]), the “percentage of cells undergoing mitophagy” value is recorded as 18.4%. In “in vivo” (iv, 1 mg/kg), the Cmax stood at 1850 ng/mL, the half-life was 23.4 min and the MRT inf was determined as 24.6 min. Besides, the Tmax in the series “in vivo” (iv, 1 mg/kg, Tmax) worked out at 4.8 min. In the series “in vivo” (po, 5 mg/kg), this compound showed an AUC(0-inf) of 5450 ng·h/mL, an AUC(0-t) of 5300 ng·h/mL, a Cmax of 1040 ng/mL and a half-life of 69 min. Moreover, in the series “in vivo” (po, 5 mg/kg), the MRT inf is 203 min. Moreover, the Tmax in the series “in vivo” (po, 5 mg/kg, Tmax) amounted to 240 min. Also, the “toxicity versus mono-substituted comparator” value in series [1] was “substantial decrease in toxicity”.
In the series “in vivo” (iv, 1 mg/kg), `c1coc(CNc2ncnc3[nH]cnc23)c1` [kinetin, reference compound] gave an AUC(0-inf) of 57 ng·h/mL, an AUC(0-t) of 56.8 ng·h/mL, a Cmax of 176 ng/mL and a half-life of 7.2 min. In the series “in vivo” (iv, 1 mg/kg), this compound gave a mean residence time MRT inf of 10.8 min. Besides, the Tmax in “in vivo” (iv, 1 mg/kg, Tmax) was determined as 4.8 min. In the series “in vivo” (po, 5 mg/kg), this compound had an AUC(0-inf) of 130 ng·h/mL, an AUC(0-t) of 122 ng·h/mL, a half-life of 64.8 min and an MRT inf of 79.2 min. Further, the Tmax in “in vivo” (po, 5 mg/kg, Tmax) is 15 min.
